One data set has as its target T1, pirin (Homo sapiens, UniProt O00625).
T1 sequence (O00625 1-290): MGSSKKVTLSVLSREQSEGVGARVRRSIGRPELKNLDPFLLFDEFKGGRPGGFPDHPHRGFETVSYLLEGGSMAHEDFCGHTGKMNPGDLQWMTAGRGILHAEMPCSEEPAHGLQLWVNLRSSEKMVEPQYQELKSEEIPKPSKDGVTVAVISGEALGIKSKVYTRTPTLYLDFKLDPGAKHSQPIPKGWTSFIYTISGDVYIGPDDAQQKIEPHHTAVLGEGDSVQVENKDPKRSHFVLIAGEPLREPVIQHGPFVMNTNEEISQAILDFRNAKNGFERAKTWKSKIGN
The data set is described as follows: Pirin SPR (surface plasmon resonance) binding. Background: In SPR one partner is held on a chip, and binding of the other changes the refractive index at the surface.

Data set [1] is described as follows: Kinetic solubility determination by RP-HPLC. The settings on record: PBS, pH 7.4, aqueous buffer, kinetic from dmso stock.
Data set [2] is described as follows: PDP aqueous stability protocol. The settings on record: 37 °C, pH 7.4 phosphate buffer.
Data set [3] is described as follows: Chemical stability as solid and in DMSO stock solution. Format: physicochemical. The settings on record: room temperature, data not shown.
The target of a further data set is T2, CRBN-DDB1 complex (Homo sapiens, UniProt Q96SW2).
T2 construct: His6-ZZ-HRV3C (N); made in house; host or cells: Sf9 insect cells (baculovirus co-infection)
The data set is described as follows: CRBN/DDB1 fluorescence polarization competition assay. Format: binding. On the procedure: CRBN/DDB1 Fluorescence Polarization Assay […]
Unless otherwise stated, the aqueous assay buffer contained 0.02 M HEPES((4-(2-hydroxyethyl)-1-piperazineethanesulfonic acid)) pH 8.0, 0.15 M NaCl, 0.5 mM TCEP ((tris(2-carboxyethyl)phosphine)), 0.05% Tween 20. The assay was conducted using 384 well black plates (ProxiPlate F Plus, Perkin-Elmer, Massachusetts, USA).
Plate Reader. […] Fluorescence […]
polarization was measured in units of millipolarization (mP) and are background corrected. Data were plotted and analyzed using […]
All experiments were performed in triplicate unless otherwise stated. Values are quoted as the geometric […]
Each graph is a representative example of a single biological repeat unless otherwise stated.
CRBN/DDB1 Protein Expression & Purification
Protein expression and purification methods adapted from Lopez-Girona et al.5 Full length human CRBN (accession number NM016302) was amplified by PCR & inserted downstream of the polyhedrin promoter of a pFBDM expression vector which had been modified to introduce a N-terminal His6-ZZ-HRV3C tag. Full length human DDB1 (accession number NM001923) was amplified by PCR with primers which introduced a C-terminal StrepTag and inserted downstream of the p10 promoter of a separate pFBDM expression vector. Baculoviruses were generated according to Bac-to-Bac protocols (Invitrogen) and used to co-infect Sf9 cells grown @ 27 °C in shaker flasks using Insect-XPRESS media (Lonza). Cells were harvested 48 hours post infection and frozen. For purification, pellets were thawed & resuspended in 5 volumes of Histrap buffer A (see below) and lysed […]
Superdex 200 (HiLoad 26/600), ResourceQ (6 mL) and finally a second Superdex 200 (HiLoad 26/600) column. All columns were from GE Healthcare and all purification steps were performed @ 4 °C. HisTrap buffer A: 50mM Tris (2-Amino-2-(hydroxymethyl)propane-1,3-diol), 500mM NaCl, 0.5mM TCEP ((tris(2-carboxyethyl)phosphine), 5% glycerol, pH 8.0. HisTrap Buffer B: + 250 mM imidazole. Superdex 200 buffer: 50mM Tris, 200mM NaCl, 0.5mM TCEP, 5% glycerol, pH 8.0. Resource Q buffer A: 50mM Tris, 0.5mM TCEP, 5% Glycerol, pH8.0. Resource Q buffer B + 1M NaCl.
California, USA) to prepare CRBN/DDB1 concentrations from 0.1 to 500 nM in 10 µL final assay volume containing 5 nM FP- […]
point prior to analysis. The KD was calculated using non-linear regression and a one-site specific binding model.
Analysis of competition assay FP-probe bound fraction […]
fb=probe bound fraction, KD=probe dissociation constant, L0=probe concentration, R0=protein concentration, Ki=ligand […]
CRBN/DDB1 Competition Assay
Compounds as solutions in DMSO were dispensed using an ECHO 550 Liquid Handler (Labcyte Inc).
Tracer controls (5 nM FP-probe S18 assay buffer only) and bound tracer controls (5 nM and 80 nM CRBN/DDB1) were included on each assay plate . Plates were incubated overnight at 4 °C before warming to room temperature and fluorescence polarization measured using an EnVision plate reader (Perkin -Elmer, Massachusetts, USA). IC 50 values […]
Table S2. CRBN/DDB1 Control Compounds
For orientation: In fluorescence polarisation assays a small probe gives low polarisation when free and higher when bound to something large.

Data set [4] deals with T3, pirin protein in SK-OV-3 human ovarian cancer cells (Homo sapiens, UniProt O00625).
T3 construct: endogenous in cells; host or cells: SK-OV-3
T3 sequence (O00625 1-290): T1 sequence (O00625 1-290)
Briefly: Pirin depletion in SK-OV-3 cells (immunoblot / capillary electrophoresis immunoassay). The class given is cell-based. Conditions: SK-OV-3 cells, Figure S18. The method, then:
in vivo in athymic mice to increase its tumorigenicity and reliability as a xenograft, and used within 10 passages of banked stocks.
(§1) Prior to use, the cells were analyzed by short tandem repeat (STR) profiling. Polymorphic STR loci were amplified using a polymerase chain reaction (PCR) primer set. The PCR product (each locus being labelled with a different fluorophore) was analyzed simultaneously with size standards using automated fluorescent detection. The number of repeats at 10 different loci (as recommended by the American Type Culture Collection, ATCC) was used to define the STR profile and this was cross-referenced with online databases to confirm authenticity. […]
the ATCC reference line (LGC Promochem, UK). […]
nested PCR protocol (Venor GeM kit, Minerva Biolabs, Germany). Cells were grown in DMEM/10 % FCS, 2 mM glutamine and nonessential amino acids in 5 % CO2.
SK-OV-3 cells were treated as for each experimental condition. Cells were harvested and lysed by scraping in urea lysis buffer (20 mM HEPES pH 8.0, 9 M urea, 1 mM sodium orthovanadate, 2.5 mM sodium pyrophosphate, 1 mM β-glycerophosphate). […]
of samples was determined using a bicinchoninic acid (BCA) protein assay kit (Thermo Fisher Scientific). Western blotting was carried out as previously described.10 Pirin and GAPDH antibodies were obtained from Abcam (ab157212) and Merck […]
Samples were treated, harvested and lysed as described above. A total of 5 μL of 0.2 mg/mL protein was loaded into plates and capillary western analysis was carried out according to the manufacturer’s instructions (ProteinSimple WES). The data was analyzed with the Compass software (ProteinSimple).
Sigma-Aldrich and Cell Signaling Technology, respectively.
10 Sharp SY, Boxall K, Rowlands M, Prodromou C, Roe SM, Maloney A, Powers M, Clarke PA, Box G, Sanderson S, Patterson L, Matthews TP, Cheung KM, Ball K, Hayes A, Raynaud F, Marais R, Pearl L, Eccles S, Aherne W, McDonald E, Workman P. In vitro biological characterization of a novel, synthetic diaryl pyrazole resorcinol class of heat shock protein 90 inhibitors.
In general terms: In western blotting, separated proteins are transferred to a membrane and probed.

Data set [5] is described as follows: LogD7.4 determination by RP-HPLC. The settings on record: pH 7.4.
The target in another data set is T4, CRBN (Homo sapiens, UniProt Q96SW2).
T4 construct: endogenous in cells; host or cells: SK-OV-3
Briefly: Rescue of PDP 16 pirin depletion by CRBN-binding competitive ligand in SK-OV-3 cells. The class given is cell-based. Conditions: 10 μM, 4 h pretreatment, then PDP 16 (5 nM) 2 h. On the procedure: Cell line: The human ovarian carcinoma cell line (SK-OV-3) was obtained from an ICR collaborator in the 1990s. It was passaged in vivo in athymic mice to increase its tumorigenicity and reliability as a xenograft, and used within 10 passages of banked stocks.
as §1
the ATCC reference line (LGC Promochem, UK). The cells were free of mycoplasma contamination as determined by a sensitive nested PCR protocol (Venor GeM kit, Minerva Biolabs, Germany). […]
Samples were sonicated and centrifuged at 20,000 x g for 15 min and the protein extract (supernatant) collected. The total protein of samples was determined using a bicinchoninic acid (BCA) protein assay kit (Thermo Fisher Scientific). […]
Samples were treated, harvested and lysed as described above. […] The data was analyzed with the Compass software (ProteinSimple). […]

Converted amounts (≈) assume the structure as drawn. “Also recorded” adds a separate entry of the source. Read-outs that look alike come from different tables or passages of the source.

Data on two compounds can be found in paper PMC5815658 (Journal of Medicinal Chemistry, 2017).

As usually defined, the Kd is the constant that tells how readily two partners part at equilibrium. For orientation: solubility (kinetic) means the concentration staying in solution when a stock, usually in DMSO, is diluted into the medium. For orientation: half-life means the time needed for the level to fall by half in the phase considered. Lower therefore signals rapid decline. A word on the Ki: it is the equilibrium dissociation constant of an inhibitor or competing ligand from its target. As usually defined, the chromatographic logD is a lipophilicity value derived from retention on a column. With `O=C(COc1cccc2c1C(=O)N(C1CCC(=O)NC1=O)C2=O)NCCOCCC(=O)N1CCN(Cc2ccc3cc(C(=O)Nc4cc(NC(=O)c5ccc6c(c5)OCCO6)ccc4F)ccc3n2)CC1` (stereo not shown) [PDP 10, N-(5-(2,3-Dihydrobenzo[b][1,4]dioxine-6-carboxamido)-2-fluorophenyl)-2-((4-(3-(2-(2-((2-(2,6-dioxopiperidin-3-yl)-1,3-dioxoisoindolin-4-yl)oxy)acetamido)ethoxy)propanoyl)piperazin-1-yl)methyl)quinoline-6-carboxamide], the Kd on pirin (Pirin SPR KD, equilibrium analysis, one site specific binding model, geometric mean n = 3) is 230 nM; on pirin (Pirin SPR KD, representative single repeat, best-fit value, one site specific binding), 224 nM; on pirin (Pirin SPR pKD±SEM, n = 3 independent biological repeats), 234 nM. Moreover, at pirin (SPR), the “Measured Rmax/Theoretical Rmax” value is on record as 0.40. The compound further came in with a solubility (kinetic) at 120 min in data set [1] of 5 µM (≈ 4.85 µg/mL). Further, the “Half-life (aqueous stability)” value in data set [2] is reported as about 4 h. In data set [2] (phosphate buffer (PBS), pH 7.4, Half-life (aqueous stability)), this compound showed a half-life at 100 µM of 4.1 h. Moreover, the “Time stable as a solid and in DMSO stock solution” value in data set [3] was over 1 month. For the same compound, the IC50 is 331 nM at CRBN-DDB1 complex (CRBN/DDB1 FP IC50, single repeat N=2, best-fit value, variable slope four parameters); 568 nM on CRBN-DDB1 complex (best-fit value, variable slope four parameters, read-out: CRBN/DDB1 FP IC50, single repeat N=1); 377 nM at CRBN-DDB1 complex (best-fit value, variable slope four parameters, read-out: CRBN/DDB1 FP IC50, single repeat N=3); 414 nM at CRBN-DDB1 complex (column statistics, read-out: CRBN/DDB1 FP pIC50, mean of 3 values (unrounded) (converted)); 410 nM on CRBN-DDB1 complex (displacement of thalidomide derived fluorescent probe, geometric mean n = 3, read-out: CRBN/DDB1 FP IC50); 417 nM on CRBN-DDB1 complex (n = 3 independent biological repeats, read-out: CRBN/DDB1 FP pIC50±SEM (converted)). Moreover, the Ki on CRBN-DDB1 complex (calculated from geometric mean CRBN-DDB1 IC50 and FP-probe KD) was 95 nM. Also, in data set [4] (3.0 μM total concentration, up to 48 h), the “Depletion of intracellular pirin expression” value is “clear and time-dependent depletion of intracellular pirin expression”. Besides, the “Compound exposure needed before pirin degradation was observed” value in data set [4] is given as “at least 24 h”. Besides, the chromatographic logD in data set [5] stood at 1.9.

In the case of `O=C1CCC(N2C(=O)c3ccccc3C2=O)C(=O)N1` (stereo not shown) [Thalidomide], the “Rescue of pirin depletion by thalidomide pretreatment” value on CRBN is reported as “rescues pirin protein depletion; also recorded: successfully rescued pirin depletion”.
